For one assay, the system named is Staphylococcus aureus. Nature of the assay: Susceptibility (MIC) of S. aureus #42 control strain. In kind it is cell-based. The note with it: strain 42 Staphylococcus aureus; read-out: MIC.
The test system of assay [1] is S. epidermidis CVC infection. In words: Rat model of CVC infection, antibiotic lock therapy. In kind it is in vivo, Sprague Dawley rats. As to the method:
Male Sprague Dawley rats (˜250 g) with catheterized jugular veins were used in these studies. Rat catheters (polyurethane tubing, 0.025 inch internal diameter) were inoculated with a culture of S. epidermidis at 5×10^8 CFU/ml. The total volume of the catheters is approximately 40 μl. The catheters were flushed with heparinized saline 1 hour after inoculation, and were maintained by daily flushes. The catheter infection was monitored by daily blood draws that were plated and quantified.
Daptomycin, vancomycin and nafcillin were used as therapy. Two different dosing regimes were used. The first mimicked clinical infusion with daptomycin administered at 5 mg/ml in the line for 30 minutes once daily compared to vancomycin at 5 mg/ml for 60 minutes twice daily, for a total of 4 days. The second regime simulated antibiotic lock therapy with an 18 hour exposure of daptomycin or vancomycin at 5 mg/ml, followed by a heparinized saline flush, daily for 3 days. In both regimes, the animals received parenteral doses of the appropriate antibiotic by subcutaneous route to simulate total body exposure (as it was not possible to administer the correct dosages through the line at 5 mg/ml). Most trials involved a therapy period, followed by a period of no antibiotic therapy to monitor for resurgence of infection due to surviving bacterial colonies.
Infection levels were monitored by daily blood draws through the infected catheter. For the terminal harvest, a final blood draw was taken and then the flushed catheter was harvested, and analyzed for surviving bacteria by sonication, vortexing, and plating. The vena cava, heart, lung, kidney, and spleen were assayed as potential metastatic infection sites by aseptic harvest, homogenization, and plating.

Assay [2] concerns Staphylococcus epidermidis. Nature of the assay: Susceptibility (MIC) of S. epidermidis isolates used in CVC studies.
Assay [3] relates to Methicillin-resistant coagulate negative staphylococci biofilms. In kind it is cell-based, coagulase negative staphylococci (S. epidermidis isolates). On the procedure:
Methicillin-resistant coagulate negative staphylococci biofilms were grown to approximately 10^5 cells per cm^2 for 24 h in glass test tubes, planktonic bacteria rinsed away and Mueller Hinton broth (calcium supplemented to […] in daptomycin tests) containing antimicrobials added to the tubes. The concentrations of antimicrobials studied were two-fold dilutions from 64 to 1 μg/mL of daptomycin, rifampin, or daptomycin plus 0.5 μg/mL rifampin. The tests were incubated overnight in room air at 37° C. The cell density in rinsed biofilms was determined prior to addition of antimicrobials and after incubation. The change in bacterial density after incubation with antimicrobials was determined, and the results were expressed as the lowest antimicrobial concentration that killed 99.90% of biofilm bacteria. Bacteria recovered from tests containing rifampin were tested for rifampin susceptibility.

Where [4] appears, read: strain 119 Staphylococcus epidermidis.
The mark [5] stands for this setting: strain 1315 Staphylococcus epidermidis.
[6] abbreviates: strain 1316 Staphylococcus epidermidis.
The mark [7] stands for this setting: strain 1317 Staphylococcus epidermidis.
[8] abbreviates: strain 1318 Staphylococcus epidermidis.
Where [9] appears, read: strain 1319 Staphylococcus epidermidis.
The mark [10] stands for this setting: strain 1320 Staphylococcus epidermidis.
[11] abbreviates: Antimicrobial Concentration ≧64.

3 compounds from patent publication US8003673B2, “Daptomycin for the treatment of biofilm and catheter salvage” (Cubist Pharmaceuticals, Inc., priority 2006, dated 2011) can be followed below.

In brackets after ≈: the same amount, converted by molar mass. Where two headings read alike, the source gives them in different places.

As usually defined, the MIC is the lowest concentration found to suppress growth.

Consider `CCOc1ccc2ccccc2c1C(=O)N[C@@H]1C(=O)N2[C@@H]1SC(C)(C)[C@@H]2C(=O)O` [Nafcillin], for which the MIC in the assay on Staphylococcus aureus is 0.125 µg/mL (≈ 0.302 µM); in assay [2] (setting [4]) it was 0.031 µg/mL (≈ 0.0748 µM); in assay [2] (setting [5]), 2 µg/mL (≈ 4.83 µM); in assay [2] (setting [6]), 16 µg/mL (≈ 38.6 µM); in assay [2] (setting [7]), 0.125 µg/mL (≈ 0.302 µM); in assay [2] (setting [8]), more than 16 µg/mL. Further, the results for the MIC in assay [2] (setting [9]) and in assay [2] (setting [10]) were 16 µg/mL (≈ 38.6 µM) and more than 16 µg/mL, respectively. For the same compound, the “Animals with positive catheter at harvest after lock therapy” value in assay [1] (following 7 days of antibiotic-free heparin flushes) is “all”. For the same compound, the “Metastatic infection after lock therapy” value in assay [1] (lock therapy combined with SC dosing) was “A significant proportion of nafcillin-treated animals showed positive metastatic infections at multiple sites”.

`CC(=O)NC[C@H]1CN(c2ccc(N3CCOCC3)c(F)c2)C(=O)O1` [Linezolid]: the MIC with Staphylococcus aureus was 2 µg/mL (≈ 5.93 µM); in assay [2] (setting [4]) it was 1 µg/mL (≈ 2.96 µM); in assay [2] (setting [5]) it was 0.5 µg/mL (≈ 1.48 µM); in assay [2] (setting [6]), 1 µg/mL (≈ 2.96 µM); in assay [2] (setting [7]), 0.5 µg/mL (≈ 1.48 µM); in assay [2] (setting [8]), 1 µg/mL (≈ 2.96 µM). Besides, the MIC worked out at 0.5 µg/mL (≈ 1.48 µM) in assay [2] (setting [9]) and 1 µg/mL (≈ 2.96 µM) in assay [2] (setting [10]).

In the case of `CO[C@H]1/C=C/O[C@@]2(C)Oc3c(C)c(O)c4c(O)c(c(/C=N/N5CCN(C)CC5)c(O)c4c3C2=O)NC(=O)/C(C)=C\C=C\[C@H](C)[C@H](O)[C@@H](C)[C@@H](O)[C@@H](C)[C@H](OC(C)=O)[C@@H]1C` [Rifampicin], the MIC is less than 0.004 µg/mL in the assay on Staphylococcus aureus; 0.008 µg/mL (≈ 0.00972 µM) in assay [2] (setting [4]); less than 0.004 µg/mL in assay [2] (setting [5]); 0.008 µg/mL (≈ 0.00972 µM) in assay [2] (setting [6]); more than 4 µg/mL in assay [2] (setting [7]); less than 0.004 µg/mL in assay [2] (setting [9]). The compound also had an MIC in assay [2] (setting [10]) of 0.008 µg/mL (≈ 0.00972 µM). For the same compound, the “# of isolates (lowest concentration that killed 99.90% of biofilm bacteria)” value in assay [3] (Antimicrobial Concentration 1) is 1 (1); in assay [3] (Antimicrobial Concentration 2), 0; in assay [3] (Antimicrobial Concentration 4), 1; in assay [3] (Antimicrobial Concentration 8), 2; in assay [3] (Antimicrobial Concentration 16), 2; in assay [3] (Antimicrobial Concentration 32) it was 0. The “# of isolates (lowest concentration that killed 99.90% of biofilm bacteria)” value in assay [3] (setting [11]) came out at 21. The “(N) number of rifampin susceptible isolates that became rifampin resistant during test” value is 1 (1) in assay [3] (Antimicrobial Concentration 1), 1 in assay [3] (Antimicrobial Concentration 16) and 7 in assay [3] (setting [11]). Also, the “Mean log10 reduction” value in assay [3] (Antimicrobial Concentration 1) was found to be 3.5 log10; in assay [3] (Antimicrobial Concentration 4) it was 3.2 log10; in assay [3] (Antimicrobial Concentration 8), 3.4 log10; in assay [3] (Antimicrobial Concentration 16), 3.0 log10; in assay [3] (setting [11]), 1.4 log10.
